Test results: patent US9029545B2, “Thienopyridine NOX2 inhibitors” (GlaxoSmithKline Intellectual Property Limited, priority 2009, dated 2015)
Where a name gives a salt, the structure may show the parent alone.

molecular target: T1, NOX2 in differentiated HL60 cells (Homo sapiens, UniProt P04839); assay: HL60 cell-based assays (Assay 1 Oxyburst green BSA fluorescence, Assay 2 L-012 luminescence); result stated for at least one of them; conditions: PMA-stimulated superoxide production in differentiated HL60 cells; at least one of Oxyburst and L012 assays; read-out: pIC50 in at least one of the HL60 assays (converted)
T1 construct: Differentiation of HL-60 cells to granulocytes increases NOX2 expression; endogenous in cells; host or cells: HL60 cells differentiated to neutrophil-like cells with 1.3% DMSO and stimulated with PMA
T1 sequence (P04839 1-570): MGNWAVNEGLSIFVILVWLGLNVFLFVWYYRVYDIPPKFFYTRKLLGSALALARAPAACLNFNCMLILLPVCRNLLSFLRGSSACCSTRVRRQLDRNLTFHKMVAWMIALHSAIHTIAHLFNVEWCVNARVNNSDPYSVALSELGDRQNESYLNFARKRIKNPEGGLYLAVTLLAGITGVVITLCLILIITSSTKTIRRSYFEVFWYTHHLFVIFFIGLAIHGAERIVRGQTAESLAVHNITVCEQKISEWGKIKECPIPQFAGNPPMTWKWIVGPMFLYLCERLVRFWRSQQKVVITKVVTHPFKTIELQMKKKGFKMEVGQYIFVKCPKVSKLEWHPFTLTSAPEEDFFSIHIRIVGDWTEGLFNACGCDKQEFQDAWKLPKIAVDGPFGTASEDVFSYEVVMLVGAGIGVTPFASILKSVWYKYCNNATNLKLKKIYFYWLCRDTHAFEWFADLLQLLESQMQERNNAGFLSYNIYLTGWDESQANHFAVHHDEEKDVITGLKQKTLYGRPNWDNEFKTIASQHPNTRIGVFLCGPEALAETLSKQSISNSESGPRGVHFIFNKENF
T1 sequence (P13498 1-195 partner): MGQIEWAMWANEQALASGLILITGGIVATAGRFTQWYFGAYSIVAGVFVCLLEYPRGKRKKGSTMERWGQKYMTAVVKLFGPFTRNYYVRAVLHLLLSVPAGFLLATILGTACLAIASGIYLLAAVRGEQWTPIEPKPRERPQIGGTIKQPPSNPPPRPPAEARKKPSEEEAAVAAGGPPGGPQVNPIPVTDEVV
Description: In the cell-based assay, superoxide production by NOX2 was measured in differentiated HL60 cells, a human myelomonocytic leukemia cell line, using either Oxyburst (Assay1) or L012 (Assay2). Differentiation of HL-60 cells to granulocytes increases NOX2 expression. The phorbol 12-myristate 13-acetate (PMA) was used to stimulate the production of superoxide in HL60 cells by activating protein kinase C, which then activated the NADPH oxidase (NOX) enzymes. Inhibition of NOX2 enzyme was detected by the reversal of fluorescence signal (Assay1) or luminescence signal (Assay2). The control inhibitor used was diphenyleneiodonium chloride (DPI), a […] inhibitor capable of non-selectively inhibiting superoxide produced by NOX enzymes.
Assay 1: in this high-throughput screening assay, oxyburst green bovine serum albumin (BSA) was used to detect superoxide production in HL60 cells. Oxidation of Oxyburst green BSA by hydrogen peroxide as a result of the activation of NOX2 by PMA. Oxyburst green BSA fluorescence was measured at excitation 485 nm and emission 530 nm.
Assay 2: in this assay, a chemiluminescence probe, L-012 was used to detect superoxide production in HL60 cells. L-012 reacted with various types of reactive oxygen species generated by PMA-activated HL60 cells. Luminescence was measured using Tecan Infinite 500.
The HL60 cells were differentiated into neutrophil-like cells by adding 1.3% DMSO in the media for 3-7 days (Hua, J et al. (2000) Journal of Leukocyte Biology. 68:216-224). Iscove's Modified Dulbecco's Media (IMDM) with L-Glutamine and 25 mM HEPES buffer, Fetal Bovine Serum (FBS), Penicillin/Streptomycin, Oxyburst Green BSA, PBS, and HBSS buffer with Calcium Chloride and Magnesium Chloride were purchased from Invitrogen (Catalog #s: 12440-061, 10500-064, 15140-163, O-13291, 14190-250, and 14025-134 respectively). Phorbol 12-myristate 13-acetate (PMA), glucose, and CHAPS were purchased from Sigma (Catalog #s: 79346, D-9434, and C5070 respectively). Diphenyleneiodonium chloride (DPI) was purchased from Toronto Research Chemicals (Catalog #: D491500). L-012 was purchased from Wako Chemical (Catalog #: 120-04891). Dimethyl sulfoxide (DMSO) was purchased EMD Chemicals (VWR Catalog #: MX1456-1). Multidrop combi was purchased from Thermo Electron Corporation (Waltham, Mass., USA). Hummingbird nanoliter liquid dispenser was purchased from Genomics Solution (Ann Arbor, Mich., USA). 384 well low-volume plates and polypropylene 384 well clear plates were purchased from Greiner (Catalog #: 784076 and 781280 respectively). 96 well plate and 384 well plate black assay plates were purchased from Greiner (Catalog #: 655094 and 781098). 96 well plate for compound serial dilution was purchased from Corning (Catalog #: 9017). Acquest or Analyst fluorescence plate reader was purchased from LJL Biosystems/Molecular Devices (California, USA). Tecan Infinite 500 was purchased from Tecan (Switzerland).
Media for HL60 cells were kept at 4° C. for storage and were warmed to 37° C. in a water bath before use. The media components were IMDM media with 20% FBS and 1% Penicillin/Streptomycin.
Buffer to be used for compound addition and compound dilution consisted of HBSS buffer with 0.1% glucose.
Buffer to be used for cells consisted of HBSS buffer with 0.1% glucose and 0.01% CHAPS.
HL60 cells were thawed and resuspended in Cells media. The cells were centrifuged at 1200 rpm for 8 minutes. Media was aspirated and the cells were resuspended in Cells buffer. The cells were counted and resuspended to 1×10^6 cells/mL.
Full inhibition controls were dispensed using 100 nL/well of 1 mM DPI in DMSO to column 18 of a 384 well plate. Compounds were dispensed using 100 nL/well. Full activity controls were dispensed using 100 nL/well of 4 uM PMA in DMSO. Oxyburst Green BSA was added to cell solution at 10 ug/mL. Using the Multidrop, 10 uL cell solution was added to the entire assay plate. The assay plate was incubated at room temperature for 100 minutes. […]

Row | SMILES | IC50
1 | CCc1sc2nc(C)cc(NS(=O)(=O)c3cccc(Cl)c3)c2c1-c1cccc(N(C)C)c1 [Example 48, 3-Chloro-N-{3-[3-(dimethylamino)phenyl]-2-ethyl-6-methylthieno[2,3-b]pyridin-4-yl}benzenesulfonamide trifluoroacetate] | < 100 µM
2 | COc1cccc(-c2c(-c3cccnc3)sc3nc(C)cc(NS(=O)(=O)c4cccc(Cl)c4)c23)c1 [Example 41, 3-Chloro-N-[6-methyl-3-[3-(methyloxy)phenyl]-2-(3-pyridinyl)thieno[2,3-b]pyridin-4-yl]-benzenesulfonamide] | < 100 µM
3 | COc1ccc(-c2csc3nc(C)cc(NS(=O)(=O)c4cccc(Cl)c4)c23)cc1OC [Example 47, N-{3-[3,4-Bis(methyloxy)phenyl]-6-methylthieno[2,3-b]pyridin-4-yl}-3-chlorobenzenesulfonamide trifluoroacetate] | < 100 µM
4 | COc1ccc(-c2c(C)sc3nc(C)cc(NS(=O)(=O)c4cccc(Cl)c4)c23)cc1 [Example 18, 3-Chloro-N-{2,6-dimethyl-3-[4-(methyloxy)phenyl]thieno[2,3-b]pyridin-4-yl}-benzenesulfonamide] | < 100 µM
5 | COc1cccc(-c2c(C(C)C)sc3nc(C)cc(NS(=O)(=O)c4cccc(Cl)c4)c23)c1 [Example 45, 3-Chloro-N-{6-methyl-2-(1-methylethyl)-3-[3-(methyloxy)phenyl]thieno[2,3-b]pyridin-4-yl}-benzenesulfonamide trifluoroacetate] | < 100 µM
6 | Cc1cc(NS(=O)(=O)c2cccc(Cl)c2)c2c(-c3ccc(Cl)c(Cl)c3)c(C)sc2n1 [Example 20, 3-Chloro-N-[3-(3,4-dichlorophenyl)-2,6-dimethylthieno[2,3-b]pyridin-4-yl]benzenesulfonamide] | < 100 µM
7 | COc1cccc(-c2c(-c3cccs3)sc3nc(C)cc(NS(=O)(=O)c4cccc(Cl)c4)c23)c1 [Example 44, 3-Chloro-N-[6-methyl-3-[3-(methyloxy)phenyl]-2-(2-thienyl)thieno[2,3-b]pyridin-4-yl]-benzenesulfonamide] | < 100 µM
8 | COc1cccc(-c2c(C)sc3nc(C)cc(NS(=O)(=O)C4CCCCC4)c23)c1 [Example 8, N-{2,6-Dimethyl-3-[3-(methyloxy)phenyl]thieno[2,3-b]pyridin-4-yl}-cyclohexanesulfonamide] | < 100 µM
9 | COc1cccc(-c2c(-c3ccco3)sc3nc(C)cc(NS(=O)(=O)c4cccc(Cl)c4)c23)c1 [Example 42, 3-Chloro-N-{2-(2-furanyl)-6-methyl-3-[3-(methyloxy)phenyl]thieno[2,3-b]pyridin-4-yl}-benzenesulfonamide] | < 100 µM
10 | COc1cccc(-c2c(C)sc3nc(C)cc(NS(=O)(=O)c4cccc(Cl)c4)c23)c1 [Example 1, 3-Chloro-N-{2,6-dimethyl-3-[3-(methyloxy)phenyl]thieno[2,3-b]pyridin-4-yl}-benzenesulfonamide] | < 100 µM
11 | COc1cccc(-c2c(C)sc3nc(C)cc(NS(=O)(=O)C4(Cl)CCN(C(=O)OCc5ccccc5)CC4)c23)c1 [Example 10, Phenylmethyl 4-chloro-4-[({2,6-dimethyl-3-[3-(methyloxy)phenyl]thieno[2,3-b]pyridin-4-yl}amino)sulfonyl]-1-piperidinecarboxylate] | < 100 µM

Second part, the compound after the results:

Row | IC50 | SMILES
12 | < 100 µM | COc1cccc(-c2c(-c3ccoc3)sc3nc(C)cc(NS(=O)(=O)c4cccc(Cl)c4)c23)c1 [Example 57, 3-Chloro-N-{2-(3-furanyl)-6-methyl-3-[3-(methyloxy)phenyl]thieno[2,3-b]pyridin-4-yl}-benzenesulfonamide]
13 | < 100 µM | COc1cccc(-c2c(C)sc3nc(C)cc(NS(=O)(=O)c4cncc(Br)c4)c23)c1 [Example 52, 5-Bromo-N-{2,6-dimethyl-3-[3-(methyloxy)phenyl]thieno[2,3-b]pyridin-4-yl}-3-pyridinesulfonamide trifluoroacetate]
14 | < 100 µM | Cc1cc(NS(=O)(=O)c2cccc(Cl)c2)c2c(C)c(-c3cn[nH]c3)sc2n1 [Example 76, 3-Chloro-N-[3,6-dimethyl-2-(1H-pyrazol-4-yl)thieno[2,3-b]pyridin-4-yl]benzenesulfonamide]
15 | < 100 µM | COc1cccc(-c2c(-c3cn[nH]c3)sc3nc(C)cc(NS(=O)(=O)c4cccc(Cl)c4)c23)c1 [Example 58, 3-Chloro-N-[6-methyl-3-[3-(methyloxy)phenyl]-2-(1H-pyrazol-4-yl)thieno[2,3-b]pyridin-4-yl]benzenesulfonamide]
16 | < 100 µM | Cc1cc(NS(=O)(=O)c2cccc(Cl)c2)c2c(-c3cccc(CNC(=O)OC(C)(C)C)c3)c(C)sc2n1 [Example 70, 1,1-Dimethylethyl {[3-(4-{[(3-chlorophenyl)sulfonyl]amino}-2,6-dimethylthieno[2,3-b]pyridin-3-yl)phenyl]methyl}carbamate]
17 | < 100 µM | Cc1cc(NS(=O)(=O)c2cccc(Cl)c2)c2c(Br)c(-c3cn[nH]c3)sc2n1 [Example 100, N-[3-Bromo-6-methyl-2-(1H-pyrazol-4-yl)thieno[2,3-b]pyridin-4-yl]-3-chlorobenzenesulfonamide]
18 | < 100 µM | Cc1cccc(-c2c(C)sc3nc(C)cc(NS(=O)(=O)c4cccc(Cl)c4)c23)c1 [Example 69, 3-Chloro-N-[2,6-dimethyl-3-(3-methylphenyl)thieno[2,3-b]pyridin-4-yl]benzenesulfonamide]
19 | < 100 µM | COc1cccc(-c2c(C)sc3nc(Cl)cc(NS(=O)(=O)c4cccc(Cl)c4)c23)c1 [Example 117, 3-Chloro-N-{6-chloro-2-methyl-3-[3-(methyloxy)phenyl]thieno[2,3-b]pyridin-4-yl}benzenesulfonamide]
20 | < 100 µM | COc1cncc(-c2c(C)sc3nc(C)cc(NS(=O)(=O)c4cccc(Cl)c4)c23)c1 [Example 67, 3-Chloro-N-{2,6-dimethyl-3-[5-(methyloxy)-3-pyridinyl]thieno[2,3-b]pyridin-4-yl}benzenesulfonamide]
21 | < 100 µM | Cc1cc(NS(=O)(=O)c2cccc(Cl)c2)c2c(-c3cn[nH]c3)c(C)sc2n1 [Example 63, 3-Chloro-N-[2,6-dimethyl-3-(1H-pyrazol-4-yl)thieno[2,3-b]pyridin-4-yl]benzenesulfonamide]
